The values that follow come from PubChem BioAssay (NCI).

Structures are written as SMILES.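 All cell lines were grown in 96-well plates and treated with compound for 48 hours. TGI marks complete inhibition of growth.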

Test systems include HL-60(TB) leukemia; HOP-92 NSCLC; HS 578T breast; IGROV1 ovarian; K-562 leukemia; MCF7 breast; MDA-MB-231 breast; MDA-MB-435; MDA-N; NCI-H226 lung; NCI-H460 lung; RXF 393 renal; SK-MEL-28 melanoma; SK-MEL-5 melanoma; SNB-75 CNS; SW-620 colon; UACC-62 melanoma; ACHN renal.
What all share (assay): growth of human tumour cells (NCI), 48 h

Regarding `Nc1nc(NCC2(CO)CC(CCc3ccccc3)C2)cc(=O)[nH]1` (configuration not stated), the TGI in the test with HL-60(TB) leukemia, in the test with HOP-92 NSCLC, with HS 578T breast, in the test on IGROV1 ovarian, with K-562 leukemia and in the test on MCF7 breast was above 100 µM in each case. For the same molecule, the TGI with MDA-MB-231 breast, in the test on MDA-MB-435, in the test with MDA-N, in the test on NCI-H226 lung, in the test with NCI-H460 lung and in the test with RXF 393 renal was above 100 µM in each case. Further, the TGI in the test with SK-MEL-28 melanoma, in the test on SK-MEL-5 melanoma, with SNB-75 CNS, with SW-620 colon and in the test on UACC-62 melanoma was above 100 µM in each case.
Take `COc1ccc(C(=O)C(CC2C(=O)CC(C)(C)C(C(=O)C(=O)Nc3c(C)cccc3C)C2=O)c2ccc(OC)cc2)cc1` (configuration not stated): the TGI in the test on ACHN renal, with HL-60(TB) leukemia, in the test on HOP-92 NSCLC, with HS 578T breast, in the test with IGROV1 ovarian and in the test on MCF7 breast was above 100 µM in each case. Also, the TGI in the test with MDA-MB-231 breast, in the test with MDA-MB-435, in the test with MDA-N, with NCI-H226 lung, with NCI-H460 lung and with RXF 393 renal was above 100 µM in each case. The TGI with SK-MEL-28 melanoma, with SK-MEL-5 melanoma, with SNB-75 CNS, in the test on SW-620 colon and with UACC-62 melanoma was above 100 µM in each case.
Take `O=C(/C=C/c1ccc(O)cc1)c1cc(O)cc(O)c1`: the TGI in the test on ACHN renal is 20.2 µM; in the test with HL-60(TB) leukemia, above 100 µM; in the test on HOP-92 NSCLC, 31.9 µM; in the test on HS 578T breast it was above 100 µM; with IGROV1 ovarian it was 26.6 µM; in the test on K-562 leukemia, 18.4 µM. In addition, the TGI turned out to be 12.3 µM in the test with MCF7 breast; 30.4 µM in the test with MDA-MB-231 breast; 38.9 µM with MDA-MB-435; 26.7 µM with MDA-N; 50.3 µM in the test with NCI-H226 lung; 32 µM with RXF 393 renal. The TGI worked out at 42.7 µM with SK-MEL-28 melanoma, 28.9 µM with SK-MEL-5 melanoma, 39.9 µM in the test with SNB-75 CNS and 24.1 µM in the test with UACC-62 melanoma.
Take `Cc1ccc(N=Nc2c(C)nn(C(=O)CC(=O)Nc3ccc(Cl)cc3)c2C)cc1C`: the TGI is above 100 µM in the test with ACHN renal; 56 µM in the test on HL-60(TB) leukemia; 64.3 µM in the test with HOP-92 NSCLC; 30.7 µM in the test with HS 578T breast; above 100 µM in the test on IGROV1 ovarian; above 100 µM with MCF7 breast. The TGI was above 100 µM with MDA-MB-231 breast; above 100 µM in the test on MDA-MB-435; above 100 µM in the test on MDA-N; above 100 µM in the test with NCI-H226 lung; above 100 µM in the test with NCI-H460 lung; 67.2 µM in the test on RXF 393 renal. The TGI is above 100 µM with SK-MEL-28 melanoma; above 100 µM with SK-MEL-5 melanoma; 48.7 µM in the test with SNB-75 CNS; above 100 µM in the test with SW-620 colon; above 100 µM in the test with UACC-62 melanoma.
For the molecule `COC(=O)C(CCSc1ccccc1)C(=O)OC`, the TGI in the test with ACHN renal, in the test on HL-60(TB) leukemia, with HOP-92 NSCLC, in the test with HS 578T breast, with IGROV1 ovarian and with MCF7 breast was above 100 µM in each case. The TGI in the test on MDA-MB-231 breast, in the test on MDA-MB-435, with MDA-N, in the test with NCI-H226 lung, with NCI-H460 lung and with RXF 393 renal was above 100 µM throughout. Moreover, the TGI in the test on SK-MEL-28 melanoma, with SK-MEL-5 melanoma, in the test on SNB-75 CNS, in the test with SW-620 colon and in the test on UACC-62 melanoma was above 100 µM in each case.
In the case of `CC1C(=O)CC[C@@]2(C)C(=O)CCCC12O` (some centres not stated), the TGI in the test on ACHN renal, in the test on HL-60(TB) leukemia, in the test on HOP-92 NSCLC, with HS 578T breast, in the test with IGROV1 ovarian and with K-562 leukemia was above 100 µM in each case. Besides, the TGI in the test with MCF7 breast, in the test with MDA-MB-231 breast, with MDA-MB-435, in the test with MDA-N, in the test with NCI-H226 lung and with NCI-H460 lung was above 100 µM each time. In addition, the TGI in the test with RXF 393 renal, in the test with SK-MEL-28 melanoma, in the test on SK-MEL-5 melanoma, in the test on SW-620 colon and with UACC-62 melanoma was above 100 µM each time.
Turning to `CN1CC(S(=O)(=O)c2ccccc2)CC(S(=O)(=O)c2ccccc2)C1c1ccccc1` (configuration not stated), the TGI was 26.9 µM with ACHN renal; 32.2 µM with HL-60(TB) leukemia; 37.7 µM in the test on HOP-92 NSCLC; 84.1 µM with HS 578T breast; above 100 µM in the test on IGROV1 ovarian; 95.2 µM in the test on K-562 leukemia. For the same molecule, the TGI in the test with MCF7 breast is 30 µM; with MDA-MB-231 breast, 31.8 µM; with MDA-MB-435 it was 28.3 µM; with MDA-N, 28.8 µM; in the test with NCI-H226 lung, 65.5 µM; in the test with NCI-H460 lung, 49.4 µM. For the same molecule, the TGI with RXF 393 renal was 37.3 µM; in the test with SK-MEL-28 melanoma, 36.7 µM; in the test with SK-MEL-5 melanoma it was 28.6 µM; in the test with SW-620 colon, 34.4 µM; with UACC-62 melanoma, 29 µM.
On to `CCCCCCCCCCCCCCCCNc1ccc2c(c1)OCCOCCOCCOCCO2`, for which the TGI is 6.16 µM with HL-60(TB) leukemia; 5.99 µM in the test with HOP-92 NSCLC; 9.1 µM with HS 578T breast; 9.41 µM in the test with IGROV1 ovarian; 10.7 µM in the test on K-562 leukemia; 13.2 µM in the test with MCF7 breast. Besides, the TGI in the test on MDA-MB-231 breast was 11.9 µM; in the test with MDA-MB-435, 11.1 µM; with MDA-N it was 12.8 µM; in the test on NCI-H226 lung, 7.07 µM; with NCI-H460 lung, 10.7 µM; with RXF 393 renal, 5.58 µM. Moreover, the TGI in the test with SK-MEL-28 melanoma amounted to 18.8 µM; in the test with SK-MEL-5 melanoma, 5.22 µM; with SNB-75 CNS it was 11.9 µM; in the test with SW-620 colon, 13.3 µM; with UACC-62 melanoma it was 11.1 µM.
Regarding `Cc1cccc(Nc2nc(NNC(=O)Cc3ccccc3)nc(NNC(=O)c3ccncc3)n2)c1`, the TGI in the test on ACHN renal, in the test on HL-60(TB) leukemia, in the test on HOP-92 NSCLC, in the test on HS 578T breast, in the test with IGROV1 ovarian and with MCF7 breast was above 10 µM in each case. For the same molecule, the TGI with MDA-MB-231 breast, with MDA-MB-435, with MDA-N, with NCI-H226 lung, in the test with NCI-H460 lung and in the test with RXF 393 renal was above 10 µM each time. For the same molecule, the TGI in the test with SK-MEL-28 melanoma, in the test with SK-MEL-5 melanoma, with SNB-75 CNS, with SW-620 colon and in the test with UACC-62 melanoma was above 10 µM each time.
As to `O=C1CCCCCCCCCCC1CN(Cc1ccccc1)Cc1ccccc1` (configuration not stated), the TGI is above 100 µM in the test with ACHN renal; 76.4 µM in the test on HL-60(TB) leukemia; above 100 µM in the test with HOP-92 NSCLC; above 100 µM in the test on HS 578T breast; above 100 µM in the test on IGROV1 ovarian; above 100 µM with K-562 leukemia. Also, the TGI was 68.1 µM with MCF7 breast; above 100 µM in the test on MDA-MB-231 breast; above 100 µM with MDA-MB-435; above 100 µM in the test on MDA-N; above 100 µM in the test on NCI-H226 lung; 70.2 µM in the test on RXF 393 renal. Further, the TGI is above 100 µM with SK-MEL-28 melanoma, 32.4 µM in the test on SK-MEL-5 melanoma, above 100 µM in the test on SW-620 colon and 36.1 µM in the test with UACC-62 melanoma.
In the case of `Cc1cn(C2CC(N=[N+]=[N-])C(C(=O)O)O2)c(=O)[nH]c1=O` (configuration not stated), the TGI in the test with ACHN renal, in the test on HL-60(TB) leukemia, with HOP-92 NSCLC, in the test on HS 578T breast, in the test with IGROV1 ovarian and with K-562 leukemia was above 100 µM in each case. Moreover, the TGI in the test on MCF7 breast, in the test on MDA-MB-231 breast, in the test with MDA-MB-435, in the test with MDA-N, with NCI-H226 lung and in the test with NCI-H460 lung was above 100 µM in each case. The TGI in the test on RXF 393 renal, with SK-MEL-5 melanoma, in the test on SNB-75 CNS, in the test on SW-620 colon and with UACC-62 melanoma was above 100 µM in each case.
For `COc1cc2c(cc1O)-c1c(OC)c(O)cc3c1C(C2)N(C)CC3` (configuration not stated), the TGI with ACHN renal, in the test on HL-60(TB) leukemia, in the test on HOP-92 NSCLC, in the test with HS 578T breast, in the test on IGROV1 ovarian and in the test with MCF7 breast was above 100 µM in each case. Besides, the TGI with MDA-MB-231 breast, with MDA-MB-435, in the test on MDA-N, in the test on NCI-H226 lung, in the test on NCI-H460 lung and in the test on RXF 393 renal was above 100 µM in each case. Besides, the TGI with SK-MEL-5 melanoma, in the test with SNB-75 CNS, in the test on SW-620 colon and in the test with UACC-62 melanoma was above 100 µM in each case.
Turning to `Cc1cccc2c(N)c3cccc(C(=O)NCCN4CCOCC4)c3nc12`, the TGI in the test with ACHN renal was 13.1 µM; with HL-60(TB) leukemia, 1.2 µM; with HOP-92 NSCLC, 23.2 µM; in the test on HS 578T breast, 0.43 µM; in the test on IGROV1 ovarian, 3.4 µM; in the test on MCF7 breast, above 32.1 µM. The TGI with MDA-MB-231 breast is 4.55 µM; in the test with MDA-MB-435, 2.12 µM; in the test on MDA-N it was 2.91 µM; in the test on NCI-H460 lung, 14 µM; in the test with RXF 393 renal, 2.62 µM; with SK-MEL-28 melanoma it was 6.29 µM. For the same molecule, the TGI was 2.46 µM in the test with SK-MEL-5 melanoma, 1.32 µM in the test on SNB-75 CNS, 26.1 µM with SW-620 colon and 3.18 µM with UACC-62 melanoma.
